According to patent US20260028404A1 (UNIVERSITY OF KANSAS, priority 2022, published 2026):

Experiments:
AT84 tumors = test: AT84 orthotopic head and neck tumor study; format: in vivo, C3H mice; conditions: intratumoral 300 μg GA, 75 μg CpG or R4 every three days x5; anti-PD-1 250 μg i.p. every three days
From the text: AT84 cells were derived from a spontaneous sarcomatoid carcinoma in the oral mucosa of a C3H mouse and were graciously donated by Aldo Venuti (Regina Elena National Cancer Institute, Rome, Italy). Cells tested negative for interspecies contamination (Idexx BioResearch) and rodent pathogens (21 pathogen IMPACT I PCR profile), and negative for Mycoplasm contamination prior to animal studies (Lonza, MycoAlert test kit). Idexx CellCheck STR (short tandem repeat) profile: MCA-4-2: 20.3, 21.3; MCA-5-5: 15; MCA-6-4: 18, 19; MCA-6-7: 12; MCA-9-2: 15; MCA-12-1: 16; MCA-15-3: 25.3, 26.3; MCA-18-3: 16; MCA-X-1: 26, 27.
4% mannitol was prepared by dissolving D-mannitol (Fisher BioReagents® #M120, Fair Lawn, NJ) in molecular biology grade water (Corning #46-000, Manassas, VA) and sterile filtered through a 0.22 μm PES membrane filter (Millex®-GP #SLGPR33RS, Merck Millipore Ltd., Tullagreen, Carrigtwohill). 1 ml syringe stocks of 20 mg/mL GA (Copaxone®, TEVA Neuroscience, Inc., Overland Park, KS) were donated by The University of Kansas Medical Center. CpG ODN 1826 was purchased from InvivoGen (#tlrl-1826, San Diego, CA) and was resuspended in LAL water to obtain 3.17 mg/mL (500 μM) stocks following manufacture's protocol. All subsequent dilutions were performed using 4% mannitol. R4 polyplexes were prepared as previously described (Pressnall et al). […]

[1] = Window of opportunity trial: adverse events of intratumoral/peritumoral Copaxone injections; format: in vivo, human
Description: (§1) Subjects whose tumors were accessible for intratumoral, percutaneous injection and were planned for surgery as the primary treatment were eligible if no other treatment between initial biopsy and surgery was anticipated. During the treatment period, eligible subjects received Copaxone® at 40 mg intratumorally for up to 3 times a week and at least 48 hours apart until 24 hours before the planned surgery. This dosing regimen was consistent with the label for subcutaneous injections of Copaxone®.
This study is an open label single arm window of opportunity trial in patients with resectable solid malignancies whose planned primary treatment is surgical resection conducted at the University of Kansas Cancer Center (KUCC). The patients had to be at least 18 years old with previously untreated histologically confirmed malignant tumor that is percutaneously accessible for intratumoral injection. The injectable tumor must be at least 5 mm in diameter using standard measuring tape. Pretreatment archival tumor tissue consisting of formalin-fixed, paraffin-embedded (FFPE) tumor tissue obtained from standard of care diagnostic biopsy must be available in order to be eligible for the trial. Patients whose lesions are in close proximity to vascular structures (i.e., carotid artery or tumors close to other vital organs such as the trachea), with mucosal lesions only, with known hypersensitivity to Copaxone or with a known condition that leads to immunosuppression such as AIDS or concurrent use of immunosuppressive therapy were considered ineligible. Approval for the study was granted through the institutional review board at University of Kansas Cancer Center and all patients provided written informed consent before study entry. This trial was performed according to the Declaration of Helsinki principles. The KUCC Data and Safety Monitoring Committee (DSMC) performed the oversight of the monitoring of participant safety, conduct and scientific progress of research protocols, and the validity and integrity of the data for clinical trials.
Study treatment: Treatment was administered on an outpatient basis prior to surgery. […] Doses were administered at least 48 hours apart and the last dose given within 96 hours of surgery. This window of 96 hours was chosen because we hypothesized that any immune changes due to Copaxone may remain apparent within 96 hours. No dose adjustments, modifications or delays due to Copaxone® related toxicity were allowed.
Efforts were made to administer the full dose into the lesion, unless it was deemed not practicable by the treating investigator. Tumors were injected using a 28-gauge or smaller needle. Glatiramer acetate (Copaxone®) was thoroughly distributed within the injected tumor using a “fanning method” (to distribute the injection across several angles throughout the lesion to maximize the spread of glatiramer acetate (Copaxone®) in the tumor). The use of local anesthetic prior to Copaxone injection was allowed.
Safety Assessments: Adverse events were assessed at baseline, during Copaxone® dose administration and at time of surgery or end of treatment visit. The revised NCI Common Terminology Criteria for Adverse Events (CTCAE) version 5.0 was utilized for AE reporting and toxicity assessment. Complete blood count, chemistry and INR were done at baseline.
as §1, with “A single-arm, open-label, preoperative window of opportunity trial was conducted to evaluate the feasibility, safety, and local effects of intratumoral/peritumoral injections of Copaxone®. Subjects” for “Subjects”, “This dosing regimen was consistent with the label for subcutaneous injections of Copaxone®.” left out

Glatiramer acetate [GA]
tumor growth (AT84 tumors): no effect | injection site reactions (overall) ([1]; intratumoral/peritumoral injection, patients): Injection site reactions were observed in and around tumor tissues | grade 2 or higher adverse events ([1]; nine patients, Copaxone 40 mg intratumoral): no grade 2 or higher adverse events | treatment related adverse events reported (number) ([1]; nine patients, Copaxone 40 mg intratumoral, 1-3 injections): 3 | grade of treatment related adverse events ([1]; nine patients, Copaxone 40 mg intratumoral, CTCAE v5.0): grade 1 | Injection Site Reaction ([1]; patient BCCa-Left Nasal Ala, 2 Copaxone injections): Grade 1-Mild | Injection Site Reaction ([1]; patient BCCa-Left Nasal Ala, 2 Copaxone injections, listed as Copaxone): grade 1 injection site reaction described as pressure and itching | Injection Site Reaction ([1]; patient BCCa-Right Flank, 3 Copaxone injections): 1st inj. - Pain | Injection Site Reaction ([1]; patient BCCa-Right Post. Neck, 2 Copaxone injections): Grade 1-Mild | Injection Site Reaction ([1]; patient BCCa-Right Post. Neck, 2 Copaxone injections, listed as Copaxone): grade 1 burning with injection of lidocaine | Injection Site Reaction ([1]; patient Melanoma-Left Scalp, 2 Copaxone injections): None | Injection Site Reaction ([1]; patient Melanoma-Mid Back, 2 Copaxone injections): None | Injection Site Reaction ([1]; patient SCCa-Right Cheek, 1 Copaxone injection): None | tolerability of intratumoral injections ([1]; patients): well tolerated
